Assay results taken from ChEMBL document CHEMBL4004838, “Design and synthesis of novel phenyl -1, 4-beta-carboline-hybrid molecules as potential anticancer agents” (Eur J Med Chem, 2017).
pIC50: −log10 of the molar value. Values after ≈ are worked out from the molar mass of the structure shown.

Key:
[1] = target: Kinesin-like protein KIF11 (Homo sapiens, UniProt P52732); test: Inhibition of EG5 (unknown origin)
[2] = tested on: LNCaP; test: Cytotoxicity against human LNCAP cells assessed as cell viability after 72 hrs by MTT assay; assay type: functional, cell-based
[3] = tested on: HepG2; test: Cytotoxicity against human HepG2 cells assessed as cell viability after 72 hrs by MTT assay; assay type: functional, cell-based; settings: HepG2, 72 h
[4] = tested on: MCF7; test: Cytotoxicity against human MCF7 cells assessed as cell viability after 72 hrs by MTT assay; assay type: functional, cell-based; settings: MCF7, 72 h

Kinesin-like protein KIF11, sequence (P52732 whole entry): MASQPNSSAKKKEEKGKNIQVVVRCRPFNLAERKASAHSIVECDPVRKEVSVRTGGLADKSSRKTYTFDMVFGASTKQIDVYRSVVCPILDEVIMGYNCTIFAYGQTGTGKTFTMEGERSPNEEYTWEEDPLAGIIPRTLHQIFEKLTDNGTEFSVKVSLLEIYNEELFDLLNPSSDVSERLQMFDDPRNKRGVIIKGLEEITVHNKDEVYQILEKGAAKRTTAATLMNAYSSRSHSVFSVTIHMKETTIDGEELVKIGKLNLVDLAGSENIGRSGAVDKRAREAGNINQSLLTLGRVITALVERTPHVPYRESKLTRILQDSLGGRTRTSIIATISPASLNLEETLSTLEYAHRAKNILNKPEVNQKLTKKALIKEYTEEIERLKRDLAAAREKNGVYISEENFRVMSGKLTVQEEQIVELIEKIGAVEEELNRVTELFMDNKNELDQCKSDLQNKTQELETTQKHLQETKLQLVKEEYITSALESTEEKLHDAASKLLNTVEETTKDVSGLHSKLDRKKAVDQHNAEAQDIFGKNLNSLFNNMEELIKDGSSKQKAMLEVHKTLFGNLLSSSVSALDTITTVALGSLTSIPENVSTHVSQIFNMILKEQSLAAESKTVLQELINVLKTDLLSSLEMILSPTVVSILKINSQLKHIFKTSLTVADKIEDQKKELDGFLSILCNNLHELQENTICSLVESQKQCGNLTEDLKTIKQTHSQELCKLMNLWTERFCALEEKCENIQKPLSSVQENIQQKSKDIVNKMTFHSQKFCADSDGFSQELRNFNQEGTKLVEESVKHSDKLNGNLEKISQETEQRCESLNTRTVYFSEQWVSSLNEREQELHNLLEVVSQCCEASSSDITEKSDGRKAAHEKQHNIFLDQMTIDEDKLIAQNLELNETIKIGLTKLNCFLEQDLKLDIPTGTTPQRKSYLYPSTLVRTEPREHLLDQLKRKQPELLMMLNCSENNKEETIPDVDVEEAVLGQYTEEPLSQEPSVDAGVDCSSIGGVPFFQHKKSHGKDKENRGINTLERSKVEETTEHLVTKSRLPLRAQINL

| Structure (SMILES) | pIC50 [1] | IC50 [2] [µg/mL] | IC50 [3] [µg/mL] | IC50 [4] [µg/mL] |
| --- | --- | --- | --- | --- |
| CCCCN1C(=O)[C@H]2Cc3c([nH]c4ccccc34)[C@@H](c3cccc(O)c3)N2C1=O | 6.10 | – | – | – |
| COc1cccc2c1C(=O)c1c(O)c3c(c(O)c1C2=O)C[C@@](O)(C(=O)CO)C[C@@H]3O[C@H]1C[C@H](N)[C@H](O)[C@H](C)O1 [DOXORUBICIN] | – | 5.28 (≈ 9.71 µM) | 4.23 (≈ 7.78 µM) | – |
| c1ccc2c3c([nH]c2c1)[C@@H](c1ccc([C@H]2NCCc4c2[nH]c2ccccc42)cc1)NCC3 | – | 15.2 (≈ 36.4 µM) | 5.22 (≈ 12.5 µM) | 8.7 (≈ 20.8 µM) |
| c1ccc2c3c([nH]c2c1)[C@H](c1ccc([C@@H]2NCCc4c2[nH]c2ccccc42)cc1)NCC3 | – | 13.3 (≈ 31.8 µM) | 6.22 (≈ 14.9 µM) | 5.19 (≈ 12.4 µM) |
